Patent US11773129B2, “Methods of preventing or treating atherosclerosis with inhibitors of specific isoenzymes of human neuraminidase” (THE GOVERNORS OF THE UNIVERSITY OF ALBERTA, priority 2017, dated 2023)
Where two headings read alike, the source gives them in different places.

Experiments:
Type in all cases: biochemical
[1] = molecular target: T1, NEU1 (Homo sapiens, UniProt Q99519); test: IC50 inhibition assay using 4MU-NANA as the substrate, NEU1
T1 construct: made in house; host or cells: HEK293 (lentiviral transduction), crude lysate
Protocol: Two weeks after transduction cells were harvested and a crude lysate showing ˜200 nmol/h mg of sialidase activity used in experiments.
Assays were performed with duplicates for each point and IC50 was obtained by plotting the data with Graphpad™ Prism 5.0.

[2] = molecular target: T2, NEU3 (Homo sapiens, UniProt Q9UQ49); test: IC50 inhibition assay using 4MU-NANA as the substrate, NEU3; parameters: MBP (N); made in house; host or cells: E. coli; details: 4MU-NANA as the substrate; read-out: IC50 NEU3
T2 sequence (Q9UQ49 1-428): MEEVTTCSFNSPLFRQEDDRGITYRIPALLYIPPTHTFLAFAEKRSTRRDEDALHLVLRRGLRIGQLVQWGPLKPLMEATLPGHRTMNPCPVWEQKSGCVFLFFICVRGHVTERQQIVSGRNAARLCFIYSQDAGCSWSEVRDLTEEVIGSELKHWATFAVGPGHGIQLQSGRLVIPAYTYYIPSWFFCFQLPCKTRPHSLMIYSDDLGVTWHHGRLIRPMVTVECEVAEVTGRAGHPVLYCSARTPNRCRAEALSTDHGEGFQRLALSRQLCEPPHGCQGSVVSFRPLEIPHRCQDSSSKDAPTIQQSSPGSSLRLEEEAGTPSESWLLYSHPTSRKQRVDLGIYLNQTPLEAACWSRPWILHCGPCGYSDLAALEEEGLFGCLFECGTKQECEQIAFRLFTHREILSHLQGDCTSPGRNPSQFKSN

[3] = tested on: NEU1, NEU2, NEU3, NEU4; test: Isoenzyme specificity/selectivity from 4MU-NANA IC50 across the four human neuraminidases
[4] = molecular target: T3, NEU4 (Homo sapiens, UniProt Q8WWR8); test: IC50 inhibition assay using 4MU-NANA as the substrate, NEU4; parameters: GST; made in house; host or cells: E. coli; details: 4MU-NANA as the substrate; read-out: IC50 NEU4
T3 sequence (Q8WWR8 1-484): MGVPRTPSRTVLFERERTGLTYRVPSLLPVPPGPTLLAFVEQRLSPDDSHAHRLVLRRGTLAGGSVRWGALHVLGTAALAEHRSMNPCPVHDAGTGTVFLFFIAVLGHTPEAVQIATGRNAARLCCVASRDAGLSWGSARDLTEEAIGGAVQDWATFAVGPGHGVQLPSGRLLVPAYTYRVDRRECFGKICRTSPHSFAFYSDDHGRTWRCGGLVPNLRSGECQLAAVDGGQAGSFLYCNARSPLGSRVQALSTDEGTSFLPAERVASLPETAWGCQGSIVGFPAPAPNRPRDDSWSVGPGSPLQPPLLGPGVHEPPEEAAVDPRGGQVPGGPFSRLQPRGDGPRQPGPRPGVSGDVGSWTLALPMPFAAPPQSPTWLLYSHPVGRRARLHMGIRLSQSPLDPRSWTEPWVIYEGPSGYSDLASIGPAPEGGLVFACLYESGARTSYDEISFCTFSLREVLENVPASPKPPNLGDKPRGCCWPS

[5] = 4MU-NANA as the substrate, read-out: IC50 NEU1
[6] = isoenzyme(s) the compound is specific for, dual (bispecific) when ratio of IC50 is about 3 or less

Row | SMILES | IC50 [1, 5] [µM] | IC50 [2] [µM] | Target [3, 6] | IC50 [4] [µM] | IC50 ([1]; target isoenzyme NEU1, 4MU-NANA substrate, read-out: IC50 [μM] NEU1) [µM] | Target [3]
1 | CCCCC(CC)C(=O)N[C@H]1[C@H]([C@H](O)[C@H](O)CO)OC(C(=O)O)=C[C@@H]1O (mixture of isomers) [compound 75, 5-(2-Ethyl)hexanamido(SIR)-2,6-anhydro-3,5-dideoxy-d-glycero-d-galacto-non-2-enonic acid] | 0.58 ± 0.03 | < 1 |  |  |  | 
2 | CCCCC(C)C(=O)N[C@H]1[C@H]([C@H](O)[C@H](O)CO)OC(C(=O)O)=C[C@@H]1O (mixture of isomers) [compound 72, 5-(2-Methyl)hexanamido(S/R)-2,6-anhydro-3,5-dideoxy-d-glycero-d-galacto-non-2-enonic acid] | 0.55 ± 0.07 | < 1 |  |  |  | 
3 | CCCCC(CC)C(=O)N[C@H]1[C@H]([C@H](O)[C@H](O)CNC(C)=O)OC(C(=O)O)=C[C@@H]1O (mixture of isomers) [compound 73, 5-(2-Ethyl)hexanamido(S/R)-9-acetanamido-2,6-anhydro-3,5-dideoxy-d-glycero-d-galacto-non-2-enonic acid] | 1.8 ± 0.2 |  |  |  |  | 
4 | CCCCC(C)C(=O)N[C@H]1[C@H]([C@H](O)[C@H](O)CNC(C)=O)OC(C(=O)O)=C[C@@H]1O (mixture of isomers) [compound 74, 5-(2-Methyl)hexanamido(S/R)-9-acetanamido-2,6-anhydro-3,5-dideoxy-d-glycero-d-galacto-non-2-enonic acid] | 0.42 ± 0.07 | < 1 |  |  |  | 
5 | CC(=O)N[C@H]1[C@H]([C@H](O)[C@H](O)Cn2cc(-c3ccc(N(C)C)cc3)nn2)OC(C(=O)O)=C[C@@H]1O [7a] | 190 ± 40 | 9.3 ± 0.8 | NEU3/ NEU4 | 28 ± 3 |  | 
6 | CC(=O)Nc1ccc(-c2cn(C[C@@H](O)[C@@H](O)[C@@H]3OC(C(=O)O)=C[C@H](O)[C@H]3NC(C)=O)nn2)cc1 [7b] | 59 ± 5 | 5.5 ± 0.5 | NEU3/ NEU4 | 11 ± 1 |  | 
7 | CC(=O)N[C@H]1[C@H]([C@H](O)[C@H](O)Cn2cc(-c3ccc(N)cc3)nn2)OC(C(=O)O)=C[C@@H]1O [7c] | 76 ± 16 | 8.7 ± 0.9 | NEU3/ NEU4 | 12 ± 1 |  | 
8 | CC(=O)N[C@H]1[C@H]([C@H](O)[C@H](O)Cn2cc(-c3ccc(C)cc3)nn2)OC(C(=O)O)=C[C@@H]1O [7d] | 51 ± 7 | 8.2 ± 1.3 | NEU3/ NEU4 | 3.9 ± 0.4 |  | 
9 | COc1ccc(-c2cn(C[C@@H](O)[C@@H](O)[C@@H]3OC(C(=O)O)=C[C@H](O)[C@H]3NC(C)=O)nn2)cc1 [7e, 5-Acetamido-(4-methoxyphenyl)-2,6-anhydro-3,5-dideoxy-b-glycero-D-galacto-non-2-enonic acid] | 47 ± 6 | 5.9 ± 0.4 | NEU3/ NEU4 | 2.6 ± 0.3 |  | 
10 | CCC(=O)N[C@H]1C=C(C(=O)O)O[C@@H]([C@H](O)[C@H](O)CO)[C@@H]1NC(C)=O [25a, 5-Acetamido-2,6-anhydro-4-propionamido-3,4,5-trideoxy-D-glycero-D-galacto-non-2-enonic acid] | > 500 | > 500 |  | > 500 |  | 
11 | CCCCC(=O)N[C@H]1C=C(C(=O)O)O[C@@H]([C@H](O)[C@H](O)CO)[C@@H]1NC(C)=O [25b, 5-Acetamido-2,6-anhydro-4-pentanamido-3,4,5-trideoxy-D-glycero-D-galacto-non-2-enonic acid] | > 500 | > 500 |  | > 500 |  | 
12 | CC(=O)N[C@H]1[C@H]([C@H](O)[C@H](O)CO)OC(C(=O)O)=C[C@@H]1NC(=O)C1CC1 [25c, 5-Acetamido-2,6-anhydro-4-cyclopropanecarboxamido-3,4,5-trideoxy-b-glycero-D-galacto-non-2-enonic acid] | > 500 | > 500 |  | > 500 |  | 
13 | CC(=O)N[C@H]1[C@H]([C@H](O)[C@H](O)CO)OC(C(=O)O)=C[C@@H]1NC(=O)C1CCC1 [25d, 5-Acetamido-2,6-anhydro-4-cyclobutanecarboxamido-3,4,5-trideoxy-D-glycero-D-galacto-non-2-enonic acid] | > 500 | > 500 |  | > 500 |  | 
14 | CCCCCC(=O)N[C@H]1[C@H]([C@H](O)[C@H](O)CO)OC(C(=O)O)=C[C@@H]1O [compound 32, 5-Hexanamido-2,6-anhydro-3,5-dideoxy-D-glycero-D-galacto-non-2-enonic acid] | 0.42 ± 0.06 |  | NEU1 | 440 ± 150 | 0.4 | 
15 | [N-]=[N+]=NCC(=O)N[C@@H]1C(O)C=C(C(=O)O)OC1C(O)C(O)CO (stereo partly drawn) [compound 40, 5-(N-2-azidoacetyl)-2,3,5-trideoxy-D-glycero-D-galacto-2-nonulopyranosonic acid] | 24 ± 2 | 4.4 ± 0.9 |  | 5.6 ± 0.8 |  | 
16 | Cc1ccc(-c2cn(CC(=O)N[C@@H]3C(O)C=C(C(=O)O)OC3C(O)C(O)CO)nn2)cc1 (some centres unmarked) [compound 42] | > 500 | > 500 |  | 110 ± 20 |  | 
17 | Nc1ccc(-c2cn(CC(=O)N[C@@H]3C(O)C=C(C(=O)O)OC3C(O)C(O)CO)nn2)cc1 (some centres unmarked) [compound 46] | > 500 | 430 ± 100 |  | 130 ± 20 |  | 
18 | CCCC(=O)NCC(O)C(O)C1OC(C(=O)O)=CC(O)[C@H]1NC(C)=O (stereo partly drawn) [compound 49, 5-Acetamido-9-butyramido-2,6-anhydro-3,5-dideoxy-D-glycero-D-galacto-non-2-enonic acid] | 4 ± 0.5 | 250 ± 90 |  |  |  | 
19 | CCCCCC(=O)NCC(O)C(O)C1OC(C(=O)O)=CC(O)[C@H]1NC(C)=O (stereo partly drawn) [compound 51, 5-Acetamido-9-hexanamido-2,6-anhydro-3,5-dideoxy-D-glycero-D-galacto-non-2-enonic acid] |  | 83 ± 9 |  | 290 ± 30 |  | NEU1
20 | CC(=O)N[C@@H]1C(O)C=C(C(=O)O)OC1C(O)C(O)CNC(=O)C(C)C (stereo partly drawn) [compound 53, 5-Acetamido-9-isobutyramido-2,6-anhydro-3,5-dideoxy-D-glycero-D-galacto-non-2-enonic acid] |  | 96 ± 28 |  | 230 ± 60 |  | 
21 | CC(=O)N[C@@H]1C(O)C=C(C(=O)O)OC1C(O)C(O)CNC(=O)CC(C)C (stereo partly drawn) [compound 54, 5-Acetamido-9-(3-methylbutanamido)-2,6-anhydro-3,5-dideoxy-D-glycero-D-galacto-non-2-enonic acid] | 2.5 ± 0.3 | 72 ± 20 |  | 130 ± 40 |  | 
22 | CCCCCc1cn(C[C@@H](O)[C@@H](O)[C@@H]2OC(C(=O)O)=C[C@H](O)[C@H]2NC(C)=O)nn1 [compound 63, 5-Acetamido-9-(4-pentyl)triazolyl-2,6-anhydro-3,5-dideoxy-d-glycero-d-galacto-non-2-enonic acid] |  | 6.7 ± 1.2 | NEU3/ NEU4 | 2.6 ± 0.6 |  | 
23 | CCCCC(=O)N[C@H]1[C@H]([C@H](O)[C@H](O)CNC(C)=O)OC(C(=O)O)=C[C@@H]1O [compound 67, 5-Pentanamido-9-acetamido-2,6-anhydro-3,5-dideoxy-D-glycero-D-galacto-non-2-enonic acid] | 0.35 ± 0.03 |  | NEU1 | > 500 |  | 
24 | CCCCCC(=O)N[C@H]1[C@H]([C@H](O)[C@H](O)CNC(C)=O)OC(C(=O)O)=C[C@@H]1O [compound 68, 5-Hexanamido-9-acetamido-2,6-anhydro-3,5-dideoxy-D-glycero-D-galacto-non-2-enonic acid] | 0.14 ± 0.01 |  | NEU1 | 170 ± 100 |  | 
25 | CCCCCC(=O)N[C@H]1[C@H]([C@H](O)[C@H](O)CNC(=O)CC)OC(C(=O)O)=C[C@@H]1O [compound 69, 5-Hexanamido-9-propionamido-2,6-anhydro-3,5-dideoxy-d-glycero-d-galacto-non-2-enonic acid] | 0.4 ± 0.1 |  | NEU1 | 270 ± 70 |  | 
26 | CC(C)CCC(=O)N[C@H]1[C@H]([C@H](O)[C@H](O)CO)OC(C(=O)O)=C[C@@H]1NC(=N)N [compound 71, 5-(4-methylpentanamido)-2,6-anhydro-4-guanidino-3,4,5-trideoxy-D-glycero-D-galacto-non-2-enonic acid] | 14 ± 2 | 150 ± 20 |  | 47 ± 7 |  | 
